# Literature values in patent publication US6696071B2, “Pre-coital and post-coital rinse with anti-viral and skin-protective zinc salts” (priority 2001, dated 2004).
# Settings: ionic dissociation in water
compound,measurement,setting,value
O=C[O-].O=C[O-].[Zn+2] [Zinc formate],"Reported pK values, pK1",pK1,0.6
same,"Reported pK values, pK2",pK2,0.95
